From publication PMC10644352, “Bromodomain Factor 5 as a Target for Antileishmanial Drug Discovery” (ACS Infectious Diseases, 2023)

Assays:
[1] = molecular target: T1, bromodomain factor 5 (LdBDF5), second bromodomain BD5.2 (Leishmania donovani, UniProt A0ACM8QMJ0); assay: FP competition (also TSA shift; waterLOGSY and CPMG NMR positive, STD inconclusive); assay type: binding
T1 construct: gene CGC21_36735; BD5.2 (second bromodomain of the N-terminal tandem repeat)
T1 sequence (A0ACM8QMJ0 161-300): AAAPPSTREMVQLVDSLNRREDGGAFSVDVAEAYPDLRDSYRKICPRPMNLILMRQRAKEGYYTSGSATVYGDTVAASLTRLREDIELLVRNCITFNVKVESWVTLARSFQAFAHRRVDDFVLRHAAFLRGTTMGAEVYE

[2] = molecular target: T2, bromodomain factor 5 (LdBDF5), first bromodomain BD5.1 (Leishmania donovani, UniProt A0ACM8QMJ0); assay: ITC (also MST Kd […], FP competition IC50 […], TSA, waterLOGSY/STD/CPMG NMR); assay type: binding
T2 construct: gene CGC21_36735; BD5.1 (first bromodomain of the N-terminal tandem repeat)

Row | IC50 [1] [µM] | SMILES | Kd [2] [µM]
1 | 24.7 ± 6.2 | CCn1cc(-c2cccc(C(F)(F)F)c2)c2sc(C(=N)NC3CCS(=O)(=O)CC3)cc2c1=O [I-BRD9] | –
2 | – | COc1ccc(CCc2nc3cc(-c4c(C)noc4C)ccc3n2C[C@H](C)N2CCOCC2)cc1Cl [SGC–CBP30] | 0.281 ± 0.0123
